For data set [1], the target named is human serum albumin (HSA) (Homo sapiens, UniProt P02768). As to the kind of experiment: Albumin binding of OSC-GCDIs (MALDI-TOF MS). Particulars: MALDI-TOF MS of trypsin-digested HSA. The procedure:
Albumin binding of OSC-GCDIs
OSC-GCDI(P) (0.2 mg/mL or 10 mg/mL) was mixed with HSA (1 mg/mL) in 50 mM Tris -HCl buffer (pH 6.8). The sample was shaken for 20 min at room temperature. Unbound OSC-GCDI(P) was removed by washing three times with distilled water (DW) using Vivaspin 500 ultrafiltration units (10 kDa cutoff).
Following centrifugation, the HSA samples were placed in the condition of 8 M urea, 50 mM Tris-HCl (pH 6.8), and 5 mM DTT at 37 °C for 60 min. Then, 50 mM Tris-HCl (pH 6.8) was added until the urea concentration was less than 1 M. Trypsin Gold was then added to achieve a final protease-to-protein ratio of 1:20 (w/w). The sample was incubated at 37 °C for 60 min. The mass-to-charge ratio of the digested sample was measured by MALDI-TOF (Matrix -Assisted Laser Desorption/Ionization Time -of-Flight) MS using α-cyano-4-hydroxycinnamic acid as the matrix. […]

Data set [2] can be described thus: in vitro. The data set is classed as in vitro ADME. Particulars: PAMPA. How it is done:
To assess this hypothesis, we conducted the parallel artificial membrane permeability assay (PAMPA) for simulating passive transcellular permeation.[41]
Supplemental Experimental Procedures
In vitro Parallel Artificial Membrane Permeability Assay (PAMPA) […]
evaluated using Parallel Artificial Membrane Permeability Assay Kit (PAMPA-096). Each prodrug and the supplied permeability controls were dissolved in DMSO at the concentration of 10 mM. Then 25 μL of each prodrug solution was mixed with 475 μL of 50 mM sodium phosphate buffer (pH 6.5) to be used as the test solution. GOC/HPMCP and OSC-GCDI/HPCMP particles are dissolved in 50 mM sodium phosphate buffer (5% DMSO, pH 6.5) to achieve a final concentration of 200 µM. In the acceptor plate, 300 μL of 50 mM sodium phosphate buffer (pH 7.4) was added. Subsequently, before adding 200 μL of each test solution to the donor plate, 5 μL of 4% lecithin in dodecane was directly applied to the well membrane of the donor plate. Donor plate was carefully placed into acceptor plate and incubate at r.t. for 16 – 24 h. Donor plate was removed and each solution was collected and filtered by a PVDF filter (0.20 μm pore size). The total prodrug concentration in each plate was determined by HPLC analysis.
In the case of OSC-GCDI(P), partial degradation occurred due to the instability of OSC-GCDI(P) in the buffer. Therefore, the collected solution was further incubated in a 1 M KOH solution for complete hydrolysis. Then, the concentration of GOC was quantified instead.

Data set [3] is described as follows: Stability of OSC-GCDIs in human serum. The data set is classed as in vitro ADME. Particulars: 200 μM prodrug, 37 °C. The procedure: (§1) Stability of OSC-GCDIs in serum
Stability of the GCDI prodrugs were examined by incubating prodrugs in human and BALB/c serum at 37 °C and 200 μM final concentration. Briefly, each prodrug was dissolved in DMSO to be 20 mM concentration, then 10 μL of each prodrug solution was mixed with 990 μL of serum. At different time intervals, 100 μL of the samples were taken and mixed with 100 μL of MeCN. Samples were centrifuged at 14,000 rpm for 10 min at 4 °C and the supernatant was immediately frozen (−80 °C). After thawing

The test system of data set [4] is A/Hong Kong/8/1968 (HK; H3N2). The data set can be described thus: microbe, parasite or virus in culture. To be noted: Influenza A virus, H3N2, MDCK.
The test system of data set [5] is A/Puerto Rico/8/1934 (PR8; H1N1). The data set can be described thus: microbe, parasite or virus in culture. Particulars: Influenza A virus, MDCK.
The subject of another data set is B/Lee/1940 (Lee). The data set can be described thus: microbe, parasite or virus in culture. Particulars: Influenza B virus, MDCK.
A short description of data set [6]: Stability of OSC-GCDIs and GOC release in BALB/c serum. Particulars: mouse; for GOC released: 200 μM. The data set is classed as in vitro ADME. How it is done: as §1
Stability of the GCDI prodrugs were examined by incubating prodrugs in human and BALB/c serum at 37 °C and 200 μM final concentration. Briefly, each prodrug was dissolved in DMSO to be 20 mM concentration, then 10 μL of each prodrug solution was mixed with 990 μL of serum. At different time intervals, 100 μL of the samples were taken and mixed with 100 μL of MeCN. Samples were centrifuged at 14,000 rpm for 10 min at 4 °C and the supernatant was immediately frozen (−80 °C). After thawing and shaking, the samples were filtered using a polytetrafluoroethylene (PTFE) filter (0.20 μm pore size) […]
Release profiles of GOC from the OSC -GCDI prodrugs conjugated to human serum albumin OSC-GCDIs were dissolved in Dulbecco ’s Phosphate-Buffered Saline (DPBS) containing HSA (20 mg/mL) to be concentration of 1 mM, then the mixture was shaken for 10 min at 37 °C. Unbound OSC-GCDIs were removed by washing twice with DPBS using Vivaspin 500 ultrafiltration units (10 kDa cutoff).
Following centrifugation, the samples were redissolved in 1 mL DPBS. Before incubation at 37 °C, 50 µL sample was taken and mixed with 50 µL of 1 M KOH in m ethanol solution to completely hydrolyze the conjugates and determine the initial drug concentration bound to HSA. Subsequently, the samples were incubated at 37 °C and after 1, 2, 4, 24, and 72 h incubation, 50 µL of the samples were taken and mixed with 50 µL MeCN. Then, the concentration of the released GOC was quantified by HPLC. […]

A short description of data set [7]: In vitro microsomal stability. The data set is classed as in vitro ADME, rat. How it is done: In vitro microsomal stability
Sprague Dawley rat microsomes were obtained from GibcoTM. NADPH was purchased from Sigma-Aldrich (Munich, Germany). Liver microsomes at 0.5 mg/mL concentration (final volume of 200 μL) were incubated in phosphate buffer (pH 7.4), containing 3 mM MgCl2. OSC-GCDI prodrug was dissolved in DMSO to be 40 mM concentration, then each prodrug solution was mixed with prepared buffer to achieve a final concentration of 100 μM (0.25% DMSO). Test compounds were incubated at 37 °C and started by the addition of the 1mM NADPH as cofactor. The samples were taken at 0, 30, 60, and 90 min. The reaction was terminated by addition of ice-cold acetonitrile/methanol (1:1, v/v). After collection, samples were centrifuged (10 min, 16,000 rpm), then the centrifuged supernatant was directly analyzed by using HPLC analysis. Metabolic half-time (t1/2) was calculated by using the equation of first order

The conditions of data set [8]: mice, oral, non-formulated prodrug.
The nature of data set [9]: in vitro. Particulars: dog.
Data set [10] is described as follows: physchem. The data set is classed as physicochemical.
Data set [11] is described as follows: Stability of OSC-GCDIs in phosphate buffers. The data set is classed as physicochemical. Particulars: for half-life at 100 μM: sodium phosphate buffer, read-out: T1/2.
Data set [12] in a line: physchem. Particulars: pH 7.4. The data set is classed as physicochemical.

Some results are limits rather than exact numbers.

This is an account of results in article PMC11363325, “A Novel Prodrug Strategy Based on Reversibly Degradable Guanidine Imides for High Oral Bioavailability and Prolonged Pharmacokinetics of Broad-Spectrum Anti-influenza Agents” (ACS Central Science, 2024).

What is called Papp is a coefficient for how fast a substance crosses the barrier. The EC50 is the concentration giving half of the maximal effect. One may read the logP as the decadic logarithm of the partition coefficient of the neutral form, usually between octanol and water. High values mean a more lipophilic compound, low ones a more hydrophilic compound. By logD is commonly meant the decadic logarithm of the distribution of all forms, ionised or not, between an organic phase and buffer at a given pH.

Chain of human serum albumin (HSA) (P02768 25-609): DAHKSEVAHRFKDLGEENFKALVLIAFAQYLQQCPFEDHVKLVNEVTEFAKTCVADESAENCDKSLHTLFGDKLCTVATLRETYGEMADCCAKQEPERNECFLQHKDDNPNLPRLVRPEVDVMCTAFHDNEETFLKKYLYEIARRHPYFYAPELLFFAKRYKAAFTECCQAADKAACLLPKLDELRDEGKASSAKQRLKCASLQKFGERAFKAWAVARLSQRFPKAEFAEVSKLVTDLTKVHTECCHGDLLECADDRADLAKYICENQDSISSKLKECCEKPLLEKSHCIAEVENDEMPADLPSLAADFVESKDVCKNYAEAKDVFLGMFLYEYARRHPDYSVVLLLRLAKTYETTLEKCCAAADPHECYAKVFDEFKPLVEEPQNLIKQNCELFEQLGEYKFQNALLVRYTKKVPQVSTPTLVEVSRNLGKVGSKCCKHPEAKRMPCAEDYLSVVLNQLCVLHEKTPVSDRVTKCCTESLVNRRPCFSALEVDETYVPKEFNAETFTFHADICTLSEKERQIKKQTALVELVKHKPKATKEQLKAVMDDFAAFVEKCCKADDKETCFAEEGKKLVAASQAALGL

Turning to `CCC(CC)O[C@@H]1C=C(C(=O)O)C[C@H](N=C(N2C(=O)c3ccccc3C2=O)N2C(=O)c3ccccc3C2=O)[C@H]1NC(C)=O` [OSC-GCDI(P)], the “covalent conjugation to HSA” value in [1] is reported as “covalent adducts”. Further, the Papp at 500 μM in the data set “in vitro [2]” was determined as 3.88 ± 0.31 ×10⁻⁶ cm/s. The “Effective permeability Pe” value in the data set “in vitro [2]” (500 μM) turned out to be 3.07 ×10⁻⁶ cm/s. The half-life at 200 μM in [3] amounted to 1.3 min; in [6] (BALB/c, serum), 1.3 min; in data set [6] (BALB/c serum, 200 μM prodrug, 37 °C, read-out: T1/2) it was 1.3 min. Also, the EC50 in data set [4] stood at 10 ± 10 nM; in data set [5], 30 ± 10 nM; in the data set with B/Lee/1940 (Lee), 2260 ± 400 nM. Besides, the GOC released in [6] (BALB/c, 30 min) was determined as 37%; in data set [6] (BALB/c, 24 h) it was 68%. The half-life at 100 μM in [7] (Sprague Dawley, liver microsomes, pH 7.4, rat liver microsome, 100 μM, 37 °C) was 17.7 min; in data set [11] (pH 2, phosphate buffer pH 2.0, 37 °C) it was 94 min; in [11] (pH 6.5, phosphate buffer pH 6.5, 37 °C), 88 min; in [11] (pH 7.4, phosphate buffer pH 7.4, 37 °C), 14.1 min; in data set [11] (pH 8, phosphate buffer pH 8.0, 37 °C), < 1 min. In addition, in [7] (rat, microsomes), the “CLint (intrinsic clearance)” value is on record as 78.2. In [8], the “plasma concentration of the prodrug” value is recorded as “below detection limit”. In “in vitro [9]”, the CC50 at 3 days is > 100000 nM. The compound further had a log partition coefficient (logP) in “physchem [10]” of 1.61. Also, the T1/2 is 93.7 min in data set [11] (phosphate buffer pH 2.0, 37 °C) and 87.7 min in data set [11] (phosphate buffer pH 6.5, 37 °C). For the same compound, the logD in “physchem [12]” stood at 1.01.
